One data set deals with T1, rat calcitonin receptor (Rattus norvegicus, UniProt P32214).
T1 construct: expressed in transfected cells; host or cells: BHK tk'ts 13 (transient, FuGENE 6)
T1 sequence (P32214 25-479 isoform P32214-2 limits assumed): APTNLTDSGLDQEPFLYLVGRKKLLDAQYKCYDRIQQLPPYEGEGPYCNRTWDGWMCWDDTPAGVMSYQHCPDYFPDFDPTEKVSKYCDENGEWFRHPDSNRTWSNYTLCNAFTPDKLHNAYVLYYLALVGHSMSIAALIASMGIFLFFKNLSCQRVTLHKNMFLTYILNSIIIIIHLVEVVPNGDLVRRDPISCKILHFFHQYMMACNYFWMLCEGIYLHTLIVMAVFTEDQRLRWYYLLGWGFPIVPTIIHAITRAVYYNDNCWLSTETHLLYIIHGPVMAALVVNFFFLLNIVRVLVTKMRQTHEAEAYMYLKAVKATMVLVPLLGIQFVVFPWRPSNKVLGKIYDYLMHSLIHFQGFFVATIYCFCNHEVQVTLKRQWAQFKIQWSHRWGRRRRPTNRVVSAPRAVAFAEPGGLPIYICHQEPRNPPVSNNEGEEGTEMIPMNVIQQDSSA
Description: Assay (VIII) binding to the rat calcitonin receptor. The note with it: membranes; read-out: rCT-R binding IC50. The method in brief: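 Competition binding on membranes from BHK tk'ts 13 cells transiently transfected with rat calcitonin receptor, otherwise run as the human receptor assay. Plates washed in cold HBSS, lysed in 0.1 M NaOH/1% SDS and scintillation-counted. IC50 from one-site competition fit as affinity measure.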

Data set [1] in a line: Assay (IV) determination of solubility. Type of data set: physicochemical. The method, then:
Assay (IV)—Determination of Solubility
The mimylin peptide was dissolved in water at ˜500 nmol/ml and mixed 1:1 with a series of buffers (100 mM glycylglycine pH 3.0, 100 mM glycylglycine pH 4.0, 100 mM glycylglycine pH 5.0, 100 mM bistrispropane pH 6.0, 100 mM bistrispropane pH 6.5, 100 mM bistrispropane pH 7.0, 100 mM bistrispropane pH 7.5, 100 mM bistrispropane pH 8.0).

≈ marks a conversion by molar mass, not a printed value. Numbered stars: 1 amine (or outer) side, 2 acyl side, 3 side chain; on linkers, the order of the positions; unused ones are H or OH. Peptide text beside a SMILES is read from it. * marks the point of attachment. C20 diacid = O=C(O)CCCCCCCCCCCCCCCCCCC(=O)*; γGlu = O=C(O)[C@H](CCC(=O)[*:2])N[*:1] Bounds are passed on as bounds.

For `CC(C)C[C@H](NC(=O)[C@H](C)NC(=O)[C@H](C)NC(=O)[C@@H](NC(=O)[C@H](CO)NC(=O)[C@H](CC(C)C)NC(=O)[C@H](CCC(=O)O)NC(=O)[C@H](CO)NC(=O)[C@H](C)NC(=O)[C@H](C)NC(=O)CC[C@H](NC(=O)CCCCCCCCCCCCCCCCCCC(=O)O)C(=O)O)[C@@H](C)O)C(=O)NCC(=O)N[C@@H](CCCNC(=N)N)C(=O)N[C@@H](CC(C)C)C(=O)N[C@@H](CO)C(=O)N[C@@H](C)C(=O)N[C@@H](CCC(=O)O)C(=O)N[C@@H](CC(C)C)C(=O)N[C@@H](Cc1c[nH]cn1)C(=O)N[C@@H](CCC(=O)O)C(=O)N[C@@H](CC(C)C)C(=O)N[C@@H](C)C(=O)N[C@H](C(=O)N[C@@H](Cc1ccc(O)cc1)C(=O)N1CCC[C@H]1C(=O)N[C@@H](CCCNC(=N)N)C(=O)N[C@H](C(=O)N[C@@H](CCC(=O)O)C(=O)N[C@H](C(=O)NCC(=O)N[C@@H](CO)C(=O)NCC(=O)N[C@@H](CO)C(=O)N1CCC[C@H]1C(N)=O)[C@@H](C)O)[C@@H](C)O)[C@@H](C)O` [compound 57, [N-terminal(C20 diacid-gGlu), 1A, 23Y, 30S, 31G]mimylin] ({C20 diacid-γGlu}-AASELSTAALGRLSAELHELATYPRTETGSGSP-NH2), the IC50 at rat calcitonin receptor amounted to 0.044 nM. The solubility at 18 h in data set [1] (bistrispropane buffer, pH 6.5) was at least 200 µM; in data set [1] (bistrispropane buffer, pH 7.5), at least 200 µM; in data set [1] (bistrispropane buffer, pH 6.0) it was at least 200 µM; in data set [1] (bistrispropane buffer, pH 7.0) it was at least 200 µM; in data set [1] (bistrispropane buffer, pH 8.0) it was at least 200 µM; in data set [1] (glycylglycine buffer, pH 3.0), at least 200 µM. The solubility at 18 h in data set [1] (glycylglycine buffer, pH 4.0) was at least 200 µM; in data set [1] (glycylglycine buffer, pH 5.0), at least 200 µM.

In the case of `CC(C)C[C@H](NC(=O)[C@H](CCCNC(=N)N)NC(=O)CNC(=O)[C@H](CC(C)C)NC(=O)[C@@H](NC(=O)[C@H](C)NC(=O)[C@@H](NC(=O)[C@H](CO)NC(=O)[C@H](CC(C)C)NC(=O)[C@H](CCC(=O)O)NC(=O)[C@H](CO)NC(=O)[C@H](C)NC(=O)CC[C@H](NC(=O)CCCCCCCCCCCCCCCCCCC(=O)O)C(=O)O)[C@@H](C)O)C(C)C)C(=O)N[C@@H](CO)C(=O)N[C@@H](CCC(N)=O)C(=O)N[C@@H](CCC(=O)O)C(=O)N[C@@H](CC(C)C)C(=O)N[C@@H](Cc1c[nH]cn1)C(=O)N[C@@H](CCC(=O)O)C(=O)N[C@@H](CC(C)C)C(=O)N[C@@H](CCC(N)=O)C(=O)N[C@H](C(=O)N[C@@H](Cc1ccc(O)cc1)C(=O)N1CCC[C@H]1C(=O)N[C@@H](CCCNC(=N)N)C(=O)N[C@H](C(=O)N[C@@H](CCC(=O)O)C(=O)N[C@H](C(=O)NCC(=O)N[C@@H](CO)C(=O)NCC(=O)N[C@H](C(=O)N[C@@H](Cc1ccc(O)cc1)C(N)=O)[C@@H](C)O)[C@@H](C)O)[C@@H](C)O)[C@@H](C)O` [compound 114, [N-terminal(C20 diacid-gGlu), des1, 9V, 15Q, 21Q, 23Y, 30S, 31G, 32T, 33Y]mimylin], the IC50 at rat calcitonin receptor was 0.021 nM. In addition, the solubility at 18 h in data set [1] (bistrispropane buffer, pH 6.5) is at least 200 µM; in data set [1] (bistrispropane buffer, pH 7.5) it was at least 200 µM; in data set [1] (bistrispropane buffer, pH 6.0), at least 200 µM; in data set [1] (bistrispropane buffer, pH 7.0), at least 200 µM; in data set [1] (bistrispropane buffer, pH 8.0), at least 200 µM; in data set [1] (glycylglycine buffer, pH 3.0) it was at least 200 µM. Moreover, the solubility at 18 h amounted to 65 µM (≈ 257 µg/mL) in data set [1] (glycylglycine buffer, pH 4.0) and 7 µM (≈ 27.6 µg/mL) in data set [1] (glycylglycine buffer, pH 5.0).

Usually IC50 stands for the midpoint of a concentration-inhibition curve. As a reminder, the solubility is the dissolved amount per volume that the medium holds. A high value points to much dissolved substance.

Source of the values: US9593149B2, “Amylin and calcitonin receptor agonist” (Novo Nordisk A/S, priority 2014, dated 2017).
